From patent US12171909B2, “Implants having a drug load of an oxysterol and methods of use” (WARSAW ORTHOPEDIC, INC., priority 2015, dated 2024)

Columns and labels:
[1] = tested on: rat two-level spine model; test: posterolateral spinal fusion in a rat two-level spine model (radiographs, manual palpation); format: in vivo; conditions: for spinal fusion (figure legend): bone growth at 4 and 8 weeks, fusion confirmed by manual palpation at 8 weeks; for bridging bone on radiographs: 4-week and 8-week timepoints, rat L3-L5; for fusion observed in rat spines (manual palpation): matrix of Oxy133, collagen and ceramic wetted with sterile water, two implants bilaterally in posterolateral space, 8-week sacrifice
Description: FIG. 6 illustrates uses of a formulation of compression resistant implants having 20 mg of Oxy133 on each side of the implant, in accordance with the implants described herein. […] Bone growth in rat test subjects can be seen after 4 and 8 weeks post-implantation, and fusion was confirmed by manual palpation of the spine segments at 8 weeks. […] A dry composition of a matrix containing Oxy133, collagen and ceramic as described herein was prepared and wetted with sterile water to be implanted in rat spines as shown in FIG. 6. The wetted matrix was cut in half with a razor blade to yield two halves. The two implants were molded into cylindrical shapes prior to insertion and were positioned bilaterally in the posterolateral space of each test subject. Each implant contained 20 mg Oxy133. Radiographs were taken roughly 10 minutes after the procedure, 4 weeks after the procedure, and 8 weeks after the procedure. […] Fusion was tested at 8-week sacrifice by manual palpation. […] A dry composition of a matrix containing Oxy133, collagen and ceramic as described herein was prepared and wetted with sterile water to be implanted in rat spines as shown in FIG. 6. The wetted matrix was cut in half with a razor blade to yield two halves. The two implants were molded into cylindrical shapes prior to insertion and were positioned bilaterally in the posterolateral space of each test subject. Each implant contained […] Oxy133. Radiographs were taken roughly 10 minutes after the procedure, 4 weeks after the procedure, and 8 weeks after the procedure. […] Fusion was tested at 8-week sacrifice by manual palpation.

solubility in water = format: physicochemical
From the text: The Oxy133 can be solubilized in a non-aqueous solvent, such as for example, ethanol and mixed into a solution or suspension. In some embodiments, the Oxy 133 can be filtered by passing the Oxy 133 and solvent through a filter (e.g., 0.22 microns). This will remove bacteria and other larger-size particulates out of the composition. The Oxy 133 used in the composition can be micronized before it is mixed with solvents and other excipients. In various embodiments, the particle size of the Oxy 133 can range from about 1 micron to 250 microns. In some embodiments, the Oxy 133 can have a particle size of from about 5 microns to about 100 microns or from about 20 to 50 microns. The Oxy 133 in the solution or suspension can be added to a slurry of biodegradable polymer and/or the ceramic particles, mixed and, then optionally dried.

Structure (SMILES): CCCCCC[C@](C)(O)[C@H]1CC[C@H]2[C@@H]3C[C@H](O)[C@H]4C[C@@H](O)CC[C@]4(C)[C@H]3CC[C@@]21C [Oxy133, (3S,5S,6S,8R,9S,10R,13S,14S,17S)-17-((S)-2-hydroxyoctan-2-yl)-10,13-dimethylhexadecahydro-1H-cyclopenta [a]phenanthrene-3,6-diol]
- spinal fusion (figure legend) ([1]; 20 mg of Oxy133 on each side, FIG. 6): yielded spinal fusion
- spinal fusion (figure legend) ([1]; 125 mg of Oxy133 on each side, FIG. 7): yielded spinal fusion
- bridging bone on radiographs ([1]; each implant 20 mg Oxy133): promoted bridging bone across the transverse processes of L3-L5
- bridging bone on radiographs ([1]; each implant 125 mg Oxy133): promoted bridging bone across the transverse processes of L3-L5
- fusion observed in rat spines (manual palpation) ([1]; each implant 20 mg Oxy133): 100%
- fusion observed in rat spines (manual palpation) ([1]; each implant 125 mg Oxy133): 100%
- solubility in water (solubility in water): only slightly soluble or insoluble in water
